# Assay results: patent US11124537B2, “Inhibitors of glucocorticoid receptor” (ORIC Pharmaceuticals, Inc., priority 2015, dated 2021)
# Target: GR (Homo sapiens (Human), UniProt P04150)
# Assay: In Vitro GR Luciferase Reporter Assay
# Type: cell-based
# Details: CHO-K1-GR-MMTV-Luc reporter cells, antagonist assay, 10 nM Dexamethasone, 18-24 hours
# Source text: Example 4: In Vitro GR Luciferase Reporter Assay
# Cell Line: CHO-K1-GR-MMTV-Luc reporter cells
# Culture Media: DMEM (with phenol red)+10% FBS
# Assay Media: DMEM (without phenol red)+10% CSS
# Culture CHO-K1-GR-MMTV-Luc reporter cells in 15 cm plates in Culture Media at conditions less than 90% confluence.
# Prepare 200×DMSO 1:5 serial dilutions of control and test compounds in 96-well non-sterile V bottom plate in DMSO, 8 serial dilutions for each compound.
# Prepare 5× Assay Media diluted compound serial dilutions in 96-well non-sterile V bottom plate: Add 97.5 uL/well of Assay Media into 96-well then add 2.5 ul of 200× concentration of compounds and mix well.
# Seed cells for Antagonist Assay: […] CHO-K1-GR-MMTV-Luc reporter cells were seeded in a Corning 3707 flat clear bottom 384-well white TC plate in 20 ul of Assay Media containing 12.5 nM Dexamethasone (final concentration=10 nM).
# Add compounds: 5 ul of assay media diluted compounds were added to appropriate wells and followed a quick spin (1000 rpm, 10 sec) to bring media and cells to the bottom of plate. The plates were covered with SealMate film to avoid evaporation and placed in 37° C. incubator for approximately 18-24 hours.
# Read plates: Equilibrate appropriate amount of Promega OneGlo luciferase reagent to room temperature. Remove the plates from incubator and add 25 uL of OneGlo reagent/well by multiple channel pipette and read the plates with Tecan F500 luminometer within 3 minutes.
# The ability of the compounds disclosed herein to inhibit GR activity was quantified and the respective IC50 value was determined. Table 3 provides the cellular IC50 values of various substituted steroidal compounds disclosed herein.
# GR, sequence (P04150 whole entry): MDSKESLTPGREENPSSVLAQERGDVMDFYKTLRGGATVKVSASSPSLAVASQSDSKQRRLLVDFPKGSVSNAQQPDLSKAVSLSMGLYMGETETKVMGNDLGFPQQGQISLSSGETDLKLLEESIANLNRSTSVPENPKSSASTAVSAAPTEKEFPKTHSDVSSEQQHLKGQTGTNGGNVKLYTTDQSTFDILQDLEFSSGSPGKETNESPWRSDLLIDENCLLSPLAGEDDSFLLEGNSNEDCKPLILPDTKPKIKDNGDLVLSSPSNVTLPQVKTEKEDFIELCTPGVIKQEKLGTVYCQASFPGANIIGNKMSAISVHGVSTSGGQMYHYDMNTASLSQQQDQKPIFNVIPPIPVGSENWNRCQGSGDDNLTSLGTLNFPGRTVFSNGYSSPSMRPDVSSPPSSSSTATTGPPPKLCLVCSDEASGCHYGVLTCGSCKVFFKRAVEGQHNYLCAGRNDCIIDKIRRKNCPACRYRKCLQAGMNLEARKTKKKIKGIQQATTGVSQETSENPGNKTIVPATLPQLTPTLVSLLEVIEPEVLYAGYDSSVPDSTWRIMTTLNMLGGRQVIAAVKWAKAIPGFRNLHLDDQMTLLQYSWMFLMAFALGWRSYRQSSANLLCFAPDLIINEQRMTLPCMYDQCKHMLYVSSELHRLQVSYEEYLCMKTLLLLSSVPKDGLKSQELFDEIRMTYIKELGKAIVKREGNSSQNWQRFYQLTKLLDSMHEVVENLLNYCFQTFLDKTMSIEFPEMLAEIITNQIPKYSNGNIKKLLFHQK
row,IC50,SMILES
1,≤ 100 nM,CC(C)(C)C#C[C@]1(O)CC[C@H]2[C@@H]3CCC4=CC(=O)CCC4=C3[C@@H](c3ccc(C(C)(C)CO)cc3)C[C@@]21C
2,≤ 100 nM,CN(C)c1cc(F)c([C@H]2C[C@@]3(C)[C@@H](CC[C@@]3(O)C#Cc3ccccc3)[C@@H]3CCC4=CC(=O)CCC4=C32)c(F)c1
3,≤ 100 nM,CC(C)(C)C#C[C@]1(O)CC[C@H]2[C@@H]3CCC4=CC(=O)CCC4=C3[C@@H](c3ccc(C(C)(CO)CO)cc3)C[C@@]21C
4,≤ 100 nM,CN(C)c1ccc([C@H]2C[C@@]3(C)[C@@H](CC[C@@]3(O)C#CC3(C)COC3)[C@@H]3CCC4=CC(=O)CCC4=C32)cc1 [drawing 354]
5,≤ 100 nM,Cc1c(F)cc([C@H]2C[C@@]3(C)[C@@H](CC[C@@]3(O)C#CC(C)C)[C@@H]3CCC4=CC(=O)CCC4=C32)cc1F
6,≤ 100 nM,CC(C)(C)C#C[C@]1(O)CC[C@H]2[C@@H]3CCC4=CC(=O)CCC4=C3[C@@H](c3ccc(N4CCN(C(=O)CO)CC4)cc3)C[C@@]21C
7,≤ 100 nM,CC(C)(C)C#C[C@]1(O)CC[C@H]2[C@@H]3CCC4=CC(=O)CCC4=C3[C@@H](c3ccc(NCC4CC4)cc3)C[C@@]21C
8,≤ 100 nM,CCc1ccc([C@H]2C[C@@]3(C)[C@@H](CC[C@@]3(O)C#Cc3ccccc3)[C@@H]3CCC4=CC(=O)CCC4=C32)cc1
9,≤ 100 nM,COc1ccc([C@H]2C[C@@]3(C)[C@@H](CC[C@@]3(O)C#CC(C)C)[C@@H]3CCC4=CC(=O)CCC4=C32)cc1F
10,> 100 nM,COC(C)(C)C#C[C@]1(O)CC[C@H]2[C@@H]3CCC4=CC(=O)CCC4=C3[C@@H](c3ccc(N4CCS(=O)(=O)CC4)cc3)C[C@@]21C
11,≤ 100 nM,CN(C)c1ccc([C@H]2C[C@@]3(C)[C@@H](CC[C@@]3(O)C#CC(C)(C)C)[C@@H]3CCC4=CC(=O)CCC4=C32)cc1F [drawing 284]
12,≤ 100 nM,CN(C)c1ccc([C@H]2C[C@@]3(C)[C@@H](CC[C@@]3(O)C#CC(C)(C)C)[C@@H]3CCC4=CC(=O)CCC4=C32)cc1
13,≤ 100 nM,CN(C)c1ccc([C@H]2C[C@@]3(C)[C@@H](CC[C@@]3(O)C#CC(C)(C)C)[C@@H]3CCC4=CC(=O)CCC4=C32)c(F)c1F
14,> 100 nM,Cc1ccc(-c2cc(F)c([C@H]3C[C@@]4(C)[C@@H](CC[C@@]4(O)C#CC(C)(C)C)[C@@H]4CCC5=CC(=O)CCC5=C43)cc2F)cn1
15,≤ 100 nM,COC(C)(C)C#C[C@]1(O)CC[C@H]2[C@@H]3CCC4=CC(=O)CCC4=C3[C@@H](c3ccc(N(C)C)cc3)C[C@@]21C
16,≤ 100 nM,CN(C)c1cc(F)c([C@H]2C[C@@]3(C)[C@@H](CC[C@@]3(O)C#CC(C)(C)C)[C@@H]3CCC4=CC(=O)CCC4=C32)cc1F [drawing 304]
17,≤ 100 nM,CC(C)(C)C#C[C@]1(O)CC[C@H]2[C@@H]3CCC4=CC(=O)CCC4=C3[C@@H](c3ccc(N4CCS(=O)(=O)CC4)cc3)C[C@@]21C
18,> 100 nM,CCN(c1ccc([C@H]2C[C@@]3(C)[C@@H](CC[C@@]3(O)C#CC(C)(C)C)[C@@H]3CCC4=CC(=O)CCC4=C32)cc1)C(C)C
19,> 100 nM,COC(C)(C)C#C[C@]1(O)CC[C@H]2[C@@H]3CCC4=CC(=O)CCC4=C3[C@@H](c3ccc(N4CCN(C(=O)CO)CC4)cc3)C[C@@]21C
20,≤ 100 nM,Cc1ccc([C@H]2C[C@@]3(C)[C@@H](CC[C@@]3(O)C#CC(C)(C)C)[C@@H]3CCC4=CC(=O)CCC4=C32)cc1
21,≤ 100 nM,[2H]C([2H])([2H])C#C[C@]1(O)CC[C@H]2[C@@H]3CCC4=CC(=O)CCC4=C3[C@@H](c3cc(F)c(C)c(F)c3)C[C@@]21C
22,≤ 100 nM,CC(C)C#C[C@]1(O)CC[C@H]2[C@@H]3CCC4=CC(=O)CCC4=C3[C@@H](c3ccc4c(c3)OCCO4)C[C@@]21C
23,≤ 100 nM,CN(C)c1cc(F)c([C@H]2C[C@@]3(C)[C@@H](CC[C@@]3(O)C#CC(F)(F)F)[C@@H]3CCC4=CC(=O)CCC4=C32)c(F)c1
24,≤ 100 nM,CC(C)N(C)c1ccc([C@H]2C[C@@]3(C)[C@@H](CC[C@@]3(O)C#Cc3ccc(S(C)(=O)=O)cc3)[C@@H]3CCC4=CC(=O)CCC4=C32)cc1
25,> 100 nM,CC(C)(C)C#C[C@]1(O)CC[C@H]2[C@@H]3CCC4=CC(=O)CCC4=C3[C@@H](c3ccc(N)cc3)C[C@@]21C

row,IC50,SMILES
1,≤ 100 nM,CC(C)(C)C#C[C@]1(O)CC[C@H]2[C@@H]3CCC4=CC(=O)CCC4=C3[C@@H](c3cc(F)c(-c4cncnc4)cc3F)C[C@@]21C
2,≤ 100 nM,CN(C)c1ccc([C@H]2C[C@@]3(C)[C@@H](CC[C@@]3(O)C#Cc3ccc(Cl)cc3)[C@@H]3CCC4=CC(=O)CCC4=C32)cc1
3,≤ 100 nM,COC(C)(C)C#C[C@]1(O)CC[C@H]2[C@@H]3CCC4=CC(=O)CCC4=C3[C@@H](c3ccc(N(C)CC(F)(F)F)cc3)C[C@@]21C
4,≤ 100 nM,CN(C)c1ccc([C@H]2C[C@@]3(C)[C@@H](CC[C@@]3(O)C#Cc3ccc(C#N)cc3)[C@@H]3CCC4=CC(=O)CCC4=C32)cc1
5,≤ 100 nM,CC(C)C#C[C@]1(O)CC[C@H]2[C@@H]3CCC4=CC(=O)CCC4=C3[C@@H](c3c(F)cc(N4CCOCC4)cc3F)C[C@@]21C [drawing 294]
6,≤ 100 nM,C[C@]12C[C@H](c3ccc4c(c3)OCO4)C3=C4CCC(=O)C=C4CC[C@H]3[C@@H]1CC[C@@]2(O)C#CC(F)(F)F
7,≤ 100 nM,CC(C)(C)C#C[C@]1(O)CC[C@H]2[C@@H]3CCC4=CC(=O)CCC4=C3[C@@H](c3ccc(N4CCCC4)cc3)C[C@@]21C [drawing 276]
8,> 100 nM,Cc1ccc([C@H]2C[C@@]3(C)[C@@H](CC[C@@]3(O)C#CC(F)(F)F)[C@@H]3CCC4=CC(=O)CCC4=C32)cc1F
9,≤ 100 nM,CN(C)c1c(F)cc([C@H]2C[C@@]3(C)[C@@H](CC[C@@]3(O)C#CC3CC3)[C@@H]3CCC4=CC(=O)CCC4=C32)cc1F
10,≤ 100 nM,CC(C)Oc1ccc([C@H]2C[C@@]3(C)[C@@H](CC[C@@]3(O)C#CC(C)(C)C)[C@@H]3CCC4=CC(=O)CCC4=C32)cc1
11,≤ 100 nM,COCCN(C)c1ccc([C@H]2C[C@@]3(C)[C@@H](CC[C@@]3(O)C#CC(C)(C)OC)[C@@H]3CCC4=CC(=O)CCC4=C32)cc1
12,> 100 nM,CC(C)(C)C#C[C@]1(O)CC[C@H]2[C@@H]3CCC4=CC(=O)CCC4=C3[C@@H](c3cccc(C4CC4)c3)C[C@@]21C [drawing 279]
13,≤ 100 nM,CC(C)C#C[C@]1(O)CC[C@H]2[C@@H]3CCC4=CC(=O)CCC4=C3[C@@H](c3ccc(N(C)C)c(F)c3F)C[C@@]21C
14,≤ 100 nM,CCC#C[C@]1(O)CC[C@H]2[C@@H]3CCC4=CC(=O)CCC4=C3[C@@H](c3ccc4c(c3)OCCO4)C[C@@]21C [drawing 324]
15,> 100 nM,Cc1c(F)cc([C@H]2C[C@@]3(C)[C@@H](CC[C@@]3(O)C#CC(C)(C)C)[C@@H]3CCC4=CC(=O)CCC4=C32)cc1F
16,≤ 100 nM,CN(C)c1ccc([C@H]2C[C@@]3(C)[C@@H](CC[C@@]3(O)C#Cc3ccccn3)[C@@H]3CCC4=CC(=O)CCC4=C32)cc1
17,≤ 100 nM,C[C@]12C[C@H](c3ccc4c(c3)OCCO4)C3=C4CCC(=O)C=C4CC[C@H]3[C@@H]1CC[C@@]2(O)C#CC(F)(F)F
18,≤ 100 nM,CN(CC(F)(F)F)c1ccc([C@H]2C[C@@]3(C)[C@@H](CC[C@@]3(O)C#CC(C)(C)C)[C@@H]3CCC4=CC(=O)CCC4=C32)cc1
19,≤ 100 nM,CC(C)N(C)c1ccc([C@H]2C[C@@]3(C)[C@@H](CC[C@@]3(O)C#CC3(C)COC3)[C@@H]3CCC4=CC(=O)CCC4=C32)cc1
20,≤ 100 nM,Cc1c(F)cc([C@H]2C[C@@]3(C)[C@@H](CC[C@@]3(O)C#Cc3ccc(S(C)(=O)=O)cc3)[C@@H]3CCC4=CC(=O)CCC4=C32)cc1F [drawing 293]
21,≤ 100 nM,CN(C)c1ccc([C@H]2C[C@@]3(C)[C@@H](CC[C@@]3(O)C#Cc3ccc(S(C)(=O)=O)cc3)[C@@H]3CCC4=CC(=O)CCC4=C32)cc1 [drawing 352]
22,≤ 100 nM,CCN(CC)c1cc(F)c([C@H]2C[C@@]3(C)[C@@H](CC[C@@]3(O)C#CC(C)C)[C@@H]3CCC4=CC(=O)CCC4=C32)c(F)c1
23,≤ 100 nM,CC(C)(C)C#C[C@]1(O)CC[C@H]2[C@@H]3CCC4=CC(=O)CCC4=C3[C@@H](c3ccc(N4CCN(S(C)(=O)=O)CC4)cc3)C[C@@]21C [drawing 346]
24,≤ 100 nM,COC1CN(c2ccc([C@H]3C[C@@]4(C)[C@@H](CC[C@@]4(O)C#CC(C)(C)C)[C@@H]4CCC5=CC(=O)CCC5=C43)cc2)C1 [drawing 341]
